Experimental data taken from PubChem BioAssay (NCI).
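Five compound concentrations were applied to cells in 96-well plates for 48 hours; endpoints were derived by simple linear interpolation of the resulting dose-response curve. The concentration for full growth arrest is given as TGI.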

Legend:
Test in all cases: inhibition of tumour cell growth, NCI panel, 48 h
NCI-H460 lung = test system: NCI-H460 lung
NCI-H226 lung = test system: NCI-H226 lung
LOX IMVI melanoma = test system: LOX IMVI melanoma
LXFL 529 NSCLC = test system: LXFL 529 NSCLC
M14 melanoma = test system: M14 melanoma
IGROV1 ovarian = test system: IGROV1 ovarian
RXF-631 renal = test system: RXF-631 renal
SK-MEL-5 melanoma = test system: SK-MEL-5 melanoma
DMS 114 small cell lung = test system: DMS 114 small cell lung
ACHN renal = test system: ACHN renal
UACC-62 melanoma = test system: UACC-62 melanoma
SNB-75 CNS = test system: SNB-75 CNS
OVCAR-5 ovarian = test system: OVCAR-5 ovarian
COLO 205 colon = test system: COLO 205 colon
SNB-78 CNS = test system: SNB-78 CNS
U251 CNS = test system: U251 CNS
HCC-2998 colon = test system: HCC-2998 colon
DMS 273 small cell lung = test system: DMS 273 small cell lung
HOP-62 NSCLC = test system: HOP-62 NSCLC
CAKI-1 renal = test system: CAKI-1 renal
RXF 393 renal = test system: RXF 393 renal
KM12 colon = test system: KM12 colon
M19-MEL melanoma = test system: M19-MEL melanoma
SK-MEL-28 melanoma = test system: SK-MEL-28 melanoma
NCI-H522 lung = test system: NCI-H522 lung
UO-31 renal = test system: UO-31 renal
SF-295 CNS = test system: SF-295 CNS
HCT-15 colon = test system: HCT-15 colon
DLD-1 colon = test system: DLD-1 colon
HCT-116 colon = test system: HCT-116 colon
OVCAR-8 ovarian = test system: OVCAR-8 ovarian
K-562 leukemia = test system: K-562 leukemia
SF-539 CNS = test system: SF-539 CNS
SNB-19 CNS = test system: SNB-19 CNS
SN12C renal = test system: SN12C renal
A549 NSCLC = test system: A549 NSCLC
CCRF-CEM leukemia = test system: CCRF-CEM leukemia
SK-MEL-2 melanoma = test system: SK-MEL-2 melanoma
EKVX NSCLC = test system: EKVX NSCLC
KM20L2 colon = test system: KM20L2 colon
SK-OV-3 ovarian = test system: SK-OV-3 ovarian
SW-620 colon = test system: SW-620 colon
MOLT-4 leukemia = test system: MOLT-4 leukemia
HOP-92 NSCLC = test system: HOP-92 NSCLC
HT29 colon = test system: HT29 colon
A498 renal = test system: A498 renal
SF-268 CNS = test system: SF-268 CNS
OVCAR-4 ovarian = test system: OVCAR-4 ovarian
NCI-H23 lung = test system: NCI-H23 lung
XF 498 CNS = test system: XF 498 CNS
TK-10 renal = test system: TK-10 renal
HL-60(TB) leukemia = test system: HL-60(TB) leukemia
UACC-257 melanoma = test system: UACC-257 melanoma
SR leukemia = test system: SR leukemia
RPMI-8226 leukemia = test system: RPMI-8226 leukemia
MALME-3M melanoma = test system: MALME-3M melanoma
HOP-18 NSCLC = test system: HOP-18 NSCLC
OVCAR-3 ovarian = test system: OVCAR-3 ovarian
786-0 renal = test system: 786-0 renal

SMILES: Cc1ccc([N+](=O)[O-])cc1NC(=O)C(=O)C(C(=O)c1ccccc1F)C1OC(=O)c2ccccc21 (configuration not stated)
- TGI (NCI-H460 lung): > 100 µM
- TGI (NCI-H226 lung): 69.6 µM
- TGI (LOX IMVI melanoma): 90.3 µM
- TGI (LXFL 529 NSCLC): > 100 µM
- TGI (M14 melanoma): > 100 µM
- TGI (IGROV1 ovarian): > 100 µM
- TGI (RXF-631 renal): > 100 µM
- TGI (SK-MEL-5 melanoma): > 100 µM
- TGI (DMS 114 small cell lung): 61.2 µM
- TGI (ACHN renal): > 100 µM
- TGI (UACC-62 melanoma): > 100 µM
- TGI (SNB-75 CNS): > 100 µM
- TGI (OVCAR-5 ovarian): > 100 µM
- TGI (COLO 205 colon): > 100 µM
- TGI (SNB-78 CNS): > 100 µM
- TGI (U251 CNS): 43.6 µM
- TGI (HCC-2998 colon): 84.6 µM
- TGI (DMS 273 small cell lung): > 100 µM
- TGI (HOP-62 NSCLC): > 100 µM
- TGI (CAKI-1 renal): > 100 µM
- TGI (RXF 393 renal): 53.9 µM
- TGI (KM12 colon): > 100 µM
- TGI (M19-MEL melanoma): > 100 µM
- TGI (SK-MEL-28 melanoma): > 100 µM
- TGI (NCI-H522 lung): 59.2 µM
- TGI (UO-31 renal): > 100 µM
- TGI (SF-295 CNS): > 100 µM
- TGI (HCT-15 colon): > 100 µM
- TGI (DLD-1 colon): > 100 µM
- TGI (HCT-116 colon): 91.8 µM
- TGI (OVCAR-8 ovarian): 90.8 µM
- TGI (K-562 leukemia): > 100 µM
- TGI (SF-539 CNS): 67.3 µM
- TGI (SNB-19 CNS): 75.5 µM
- TGI (SN12C renal): > 100 µM
- TGI (A549 NSCLC): > 100 µM
- TGI (CCRF-CEM leukemia): > 100 µM
- TGI (SK-MEL-2 melanoma): > 100 µM
- TGI (EKVX NSCLC): > 100 µM
- TGI (KM20L2 colon): > 100 µM
- TGI (SK-OV-3 ovarian): > 100 µM
- TGI (SW-620 colon): > 100 µM
- TGI (MOLT-4 leukemia): > 100 µM
- TGI (HOP-92 NSCLC): > 100 µM
- TGI (HT29 colon): > 100 µM
- TGI (A498 renal): > 100 µM
- TGI (SF-268 CNS): 98.8 µM
- TGI (OVCAR-4 ovarian): > 100 µM
- TGI (NCI-H23 lung): > 100 µM
- TGI (XF 498 CNS): > 100 µM
- TGI (TK-10 renal): > 100 µM
- TGI (HL-60(TB) leukemia): > 100 µM
- TGI (UACC-257 melanoma): > 100 µM
- TGI (SR leukemia): > 100 µM
- TGI (RPMI-8226 leukemia): > 100 µM

SMILES: CC(Oc1ccc(OCC2CCCCC2)cc1)C(N)=O (configuration not stated)
- TGI (NCI-H460 lung): > 100 µM
- TGI (NCI-H226 lung): > 100 µM
- TGI (LOX IMVI melanoma): > 100 µM
- TGI (LXFL 529 NSCLC): > 100 µM
- TGI (M14 melanoma): > 100 µM
- TGI (SK-MEL-5 melanoma): > 100 µM
- TGI (MALME-3M melanoma): > 100 µM
- TGI (DMS 114 small cell lung): > 100 µM
- TGI (ACHN renal): > 100 µM
- TGI (UACC-62 melanoma): > 100 µM
- TGI (SNB-75 CNS): > 100 µM
- TGI (SNB-78 CNS): > 100 µM
- TGI (U251 CNS): > 100 µM
- TGI (DMS 273 small cell lung): > 100 µM
- TGI (KM12 colon): > 100 µM
- TGI (M19-MEL melanoma): > 100 µM
- TGI (SK-MEL-28 melanoma): > 100 µM
- TGI (NCI-H522 lung): > 100 µM
- TGI (UO-31 renal): > 100 µM
- TGI (SF-295 CNS): > 100 µM
- TGI (HCT-15 colon): > 100 µM
- TGI (DLD-1 colon): > 100 µM
- TGI (HCT-116 colon): > 100 µM
- TGI (HOP-18 NSCLC): > 100 µM
- TGI (OVCAR-8 ovarian): > 100 µM
- TGI (K-562 leukemia): > 100 µM
- TGI (SF-539 CNS): > 100 µM
- TGI (SN12C renal): > 100 µM
- TGI (OVCAR-3 ovarian): > 100 µM
- TGI (A549 NSCLC): > 100 µM
- TGI (CCRF-CEM leukemia): > 100 µM
- TGI (SK-MEL-2 melanoma): > 100 µM
- TGI (SK-OV-3 ovarian): > 100 µM
- TGI (SW-620 colon): > 100 µM
- TGI (MOLT-4 leukemia): > 100 µM
- TGI (HT29 colon): > 100 µM
- TGI (SF-268 CNS): > 100 µM
- TGI (OVCAR-4 ovarian): > 100 µM
- TGI (NCI-H23 lung): > 100 µM
- TGI (XF 498 CNS): > 100 µM
- TGI (786-0 renal): > 100 µM
- TGI (TK-10 renal): > 100 µM
- TGI (HL-60(TB) leukemia): > 100 µM
- TGI (UACC-257 melanoma): > 100 µM

SMILES: CC1(C)CC(=O)C2=C(C1)S/C(=C1/SC3=C(S1)C(=O)CC(C)(C)C3)S2
- TGI (NCI-H460 lung): > 251 µM
- TGI (LOX IMVI melanoma): > 251 µM
- TGI (LXFL 529 NSCLC): > 251 µM
- TGI (M14 melanoma): > 251 µM
- TGI (IGROV1 ovarian): > 251 µM
- TGI (MALME-3M melanoma): > 251 µM
- TGI (DMS 114 small cell lung): > 251 µM
- TGI (ACHN renal): > 251 µM
- TGI (UACC-62 melanoma): > 251 µM
- TGI (SNB-75 CNS): > 251 µM
- TGI (COLO 205 colon): > 251 µM
- TGI (SNB-78 CNS): > 251 µM
- TGI (U251 CNS): > 251 µM
- TGI (HCC-2998 colon): > 251 µM
- TGI (DMS 273 small cell lung): > 251 µM
- TGI (HOP-62 NSCLC): > 251 µM
- TGI (RXF 393 renal): > 251 µM
- TGI (KM12 colon): > 251 µM
- TGI (M19-MEL melanoma): > 251 µM
- TGI (SK-MEL-28 melanoma): > 251 µM
- TGI (NCI-H522 lung): > 251 µM
- TGI (UO-31 renal): > 251 µM
- TGI (SF-295 CNS): > 251 µM
- TGI (HCT-15 colon): > 251 µM
- TGI (DLD-1 colon): > 251 µM
- TGI (HCT-116 colon): > 251 µM
- TGI (HOP-18 NSCLC): > 251 µM
- TGI (OVCAR-8 ovarian): > 251 µM
- TGI (K-562 leukemia): > 251 µM
- TGI (SF-539 CNS): > 251 µM
- TGI (SNB-19 CNS): > 251 µM
- TGI (SN12C renal): > 251 µM
- TGI (OVCAR-3 ovarian): > 251 µM
- TGI (A549 NSCLC): > 251 µM
- TGI (CCRF-CEM leukemia): > 251 µM
- TGI (SK-MEL-2 melanoma): > 251 µM
- TGI (EKVX NSCLC): > 251 µM
- TGI (KM20L2 colon): > 251 µM
- TGI (SK-OV-3 ovarian): > 251 µM
- TGI (SW-620 colon): > 251 µM
- TGI (MOLT-4 leukemia): > 251 µM
- TGI (HOP-92 NSCLC): > 251 µM
- TGI (HT29 colon): > 251 µM
- TGI (A498 renal): > 251 µM
- TGI (SF-268 CNS): > 251 µM
- TGI (NCI-H23 lung): > 251 µM
- TGI (XF 498 CNS): > 251 µM
- TGI (786-0 renal): > 251 µM
- TGI (TK-10 renal): > 251 µM
- TGI (HL-60(TB) leukemia): > 251 µM
- TGI (UACC-257 melanoma): > 251 µM
- TGI (SR leukemia): > 251 µM
- TGI (RPMI-8226 leukemia): > 251 µM
